Assay results published in patent publication US5424329A, “Indole-2-carboxamides as inhibitors of cell adhesion” (Warner-Lambert Company, priority 1993, dated 1995).
Structures can show the parent of a compound that is named as a salt.

System: activation of HIV-1 in OM-10.1 cells
Assay: not given
Details: poster NCDDG/AIDS 1991; cited from earlier work

| Compound | inhibition of the activation of HIV-1 |
| --- | --- |
| interferon Y: interferon Y | modest inhibitors |
| CC(=O)N(O)CCCCCNC(=O)CCC(=O)N(O)CCCCCNC(=O)CCC(=O)N(O)CCCCCN [desferrioxamine] | modest inhibitors |
| Cc1cn([C@H]2C[C@H](F)[C@@H](CO)O2)c(=O)[nH]c1=O [3'-fluoro-3'-deoxythymidine (FLT), 3'-fluoro-3'-deoxythymidine] | modest inhibitors |

System: human neutrophil adhesion to TNF-α, IL-1α, and LPS-stimulated human umbilical vein endothelial cells (HUVEC)
Assay: Inhibition of human neutrophil adhesion to TNF-α, IL-1α, and LPS-stimulated human umbilical vein endothelial cells (chromium assay)
Type: cell-based
Details: not given
Text: METHOD FOR DETERMINING THE INHIBITION OF HUMAN NEUTROPHIL ADHESION TO TNF-α, IL-1α, AND LPS-STIMULATED HUMAN UMBILICAL VEIN ENDOTHELIAL
CELLS BY 3-SUBSTITUTED-INDOLE-2-CARBOXAMIDES
Neutrophils were isolated from anticoagulant-treated venous blood obtained from healthy human volunteers according to the method of Ferrante and Thong (J. Immunol. Methods 1978;24:389-393). The cell preparations consisted of greater than 98% neutrophils.
Second passage human umbilical vein endothelial cells (HUVEC) (Clonetics, San Diego, Calif.) were seeded into Falcon 24-well cell culture plates (Becton Dickinson, Lincoln Park, N.J.) at approximately 2×10^4 cells per well. The cells were grown to confluent monolayers in endothelial basal medium (EBM, Clonetics) supplemented with 5% fetal calf serum (Hyclone Laboratories, Logan, Utah), 10 ng/mL EGF, 1μg/mL hydrocortisone, 0.4% bovine brain extract (Clonetics) in 5% CO2 at 37° C. […]
Stimulation of HUVEC with tumor necrosis factor-α (TNF-α) (Genzyme, Cambridge, Mass.), interleukin (IL-1α) (Genzyme) or E. coli 0111:B4 lipopolysaccharide (LPS) (Sigma) in the presence or absence of drug was initiated 4 hours prior to the addition of neutrophils. […] Lysates were collected and the radioactivity in each well was determined by gamma ray spectroscopy.

| Compound | inhibition at 100 µM [%] |
| --- | --- |
| COc1ccc2c(c1)c(OC(C)C)c(C(N)=O)n2-c1ccccc1 [Example 16, 5-Methoxy-3-(1-methylethoxy)-1-phenyl-1H-indole-2-carboxamide] | 35 |

System: HIV activation in OM-10.1 cells
Assay: Inhibition of activation of latent HIV in OM-10.1 cells
Type: cell-based, HIV-1
Details: Human immunodeficiency virus 1, chronically HIV-infected promyelocytic clone
Text: The cellular pathways involved in mediating the activating signal from the plasma membrane to the integrated virus, resulting in HIV-1 expression, are much less clear. Recently, the development of a reliable and simple system for evaluating compounds that could prevent activation of latent HIV was reported at the National […] (NCDDG)/AIDS by P. Feorino, S. T. Butera, T. M. Folks, and R. F. Schinazi, Nov. 3-7, 1991. The assay system employed the OM-10.1 cell line, a unique chronically-infected promyelocytic clone which remains CD4+ until HIV-1 activation with tumor necrosis factor-α. The expression of CD4+ on the cell surface and the activity of reverse transcriptase are used as markers for quantitating viral expression. Alternatively, other HIV markers, such as protease activity, which are known to those of skill in the art can be used. OM-10.1 cells remain CD4^+ until viral activation and respond to tumor necrosis factor induction, and therefore, these cultures are used to conveniently and rapidly examine pharmacologics for an ability to prevent CD4^+ down modulation (decrease in expression of CD4^+ on the cell surface) and HIV-1 expression.

| Compound | IC50 [µM] |
| --- | --- |
| COc1ccc2c(c1)c(OC(C)C)c(C(N)=O)n2C [Example 1, 5-Methoxy-1-methyl-3-(1-methylethoxy)-1H-indole-2-carboxamide] | 0.8 |

System: human neutrophil adhesion to TNF-α stimulated human umbilical vein endothelial cells (HUVEC)
Assay: Inhibition of human neutrophil adhesion to TNF-stimulated human umbilical vein endothelial cells (modified method, calcein-AM fluorescence)
Type: cell-based
Details: 4 hours, IC50 from 33.3, 10.0, 3.3 and 1.0 μM
Method: MODIFIED METHOD FOR DETERMINING THE INHIBITION OF HUMAN NEUTROPHIL ADHESION TO TNF-α, IL-1α, AND LPS STIMULATED
HI/MAN UMBILICAL VEIN ENDOTHELIAL CELLS BY
3-SUBSTITUTED-INDOLE-2-CARBOXAMIDES
Second passage HUVEC (Clonetics Corporation, San Diego, Calif., CC-2617) were seeded into Corning (Corning glass works, Corning, N.Y.) 96-well cell culture plates at approximately 5×10^3 cells/well and grown to confluency in supplemented endothelial basal medium (EBM, MCDB-131, Clonetics, 10 ng/mL EGF, 1 μg/mL hydrocortisone, 0.4% bovine brain extract, 5% Fetal Bovine Serum). One day prior to running the assay, typically 3 days postseeding, the cultures were re-fed with 0.2 mL/well supplemented EBM (S-EBM).
Preparation of Test Compounds
Test compounds were prepared as 10 mL stock solutions at a concentration of 1.0 mM. The compounds were initially solubilized in 0.1 mL DMSO followed by the addition of 9.9 mL S-EBM. The drug preparations were then diluted in one step to a concentration of 66.6 μM. Solubilizations and dilutions were performed in polystyrene containers.
Isolation of Human Neutrophils
Human neutrophils were isolated from anticoagulant-treated venous blood obtained from healthy volunteers according to the method of Ferrante and Thong, J. Immunol. Methods 1978;24:389-393. The cell preparations consisted of greater than 98% neutrophils.
Recombinant human tumor necrosis factor-α (TNF, Genzyme, Boston, Mass., code TNF-H) was prepared at 400 U/mL in S-EBM. Stock TNF was prepared to 20,000 U/mL in Delbecco's phosphate buffered saline (PBS, Gibco, Grand Island, N.Y.) plus 0.1% BSA and stored at -70° C. HUVEC were washed one time with 0.2 mL warm unsupplemented EBM and then stimulated for 4 hours at 37° C. with 200 U/mL TNF in the presence of 33.3 μM test compound. This was accomplished by adding 0.1 mL of 400 U/mL TNF and 0.1 mL 66.6 μM test compound. These additions were done slowly as to not disrupt the HUVEC monolayer. Each compound was tested in six wells. Unstimulated (vehicle control) and TNF-stimulated without test compound treatments were also run in each plate.
One hour prior to adding the neutrophils to the HUVEC, neutrophils (5×10^6 /mL) were labeled for 30 minutes at 37° C. with 5 μM calcein-AM (Molecular Probes, Eugene, Oreg.) in Hanks' balanced salt solution plus 0.45% BSA. Stock calcein was prepared to 5 mM in anhydrous DMSO and stored desiccated at -20° C. At the end of the incubation the cells were washed two times in cold HBSS and resuspended to a final concentration of 1×10^6 cells/mL in unsupplemented EBM.
Addition of Neutrophils to HUVEC
At the end of the 4-hour stimulation and immediately prior to the addition of the neutrophils to the HUVEC monolayer, the plates were washed with 0.2 mL warm unsupplemented EBM to remove TNF and drug. Neutrophils (1×10^5 cells) were slowly added to each of the treated wells and incubated for 30 minutes at 37° C. At the end of the incubation the plates were washed two times with 0.2 mL warm unsupplemented EBM followed by a final addition of 0.1 mL for plate scanning.
Determination of Relative Fluorescence
The relative fluorescence was determined using a Millipore Cytofluor 2300 system (excitation=480, emission=530, sensitivity=4). Each file was saved on disk as a comma separated value (.CSV) file for import into a spreadsheet.
Results were expressed as means of percent inhibition of TNF-stimulated adherence. A Quattro Pro (Borland, Scotts Valley, Calif.) spreadsheet has been programmed to accept the raw data and perform all necessary calculations. [formula]
Linear regression analysis of the means of the inhibition values were used to determine the IC50.

| Compound | IC50 [µM] |
| --- | --- |
| CC(C)Sc1c(C(N)=O)n(C)c2ccc(O)cc12 [Example 29, 5-Hydroxy-1-methyl-3-[(1-methylethyl)thio]-1H-indole-2-carboxamide] | 43 |
| COc1ccc2c(c1)c(SC(C)C)c(C(N)=O)n2C [Example 26, 5-Methoxy-1-methyl-3-[(1-methylethyl)thio]-1H-indole-2-carboxamide] | 29 |
| COCn1c(C(N)=O)c(OC(C)C)c2cc(OC)ccc21 [Example 30, 5-Methoxy-1-methoxymethyl-3-(1-methylethoxy)-1H-indole-2-carboxamide] | 34 |
| COc1ccc2c(c1)c(OC(C)C)c(C(N)=O)n2C [Example 1, 5-Methoxy-1-methyl-3-(1-methylethoxy)-1H-indole-2-carboxamide] | 10 |
| CC(C)Oc1c(C(N)=O)n(C)c2ccc(O)cc12 [Example 15, 5-Hydroxy-1-methyl-3-(1-methylethoxy)-1H-indole-2-carboxamide] | 7 |
| COc1ccc2[nH]c(C(N)=O)c(OC(C)C)c2c1 [Example 18, 5-Methoxy-3-(1-methylethoxy)-1H-indole-2-carboxamide] | 8 |

Same assay, conditions: @ 33 μM

| Compound | inhibition at 33 µM [%] |
| --- | --- |
| CCOc1c(C(N)=O)n(-c2ccccc2)c2ccc(OC)cc12 [Example 19, 3-Ethoxy-5-methoxy-1-phenyl-1H-indole-2-carboxamide] | 13 |
| CCN(CC)c1c(C(N)=O)[nH]c2ccc(OC)cc12 [Example 20, 3-(Diethylamino)-5-methoxy-1H-indole-2-carboxamide, monohydrochloride] | 27 |
| COc1ccc2c(c1)c(SC)c(C(N)=O)n2C [Example 6, 5-Methoxy-1-methyl-3-(methylthio)-1H-indole-2-carboxamide] | 72 |
| CC(C)Sc1c(C(N)=O)n(C)c2ccc(OCc3ccccc3)cc12 [Example 23, 1-Methyl-3-[(1-methylethyl)thio]-5-(phenylmethoxy)-1H-indole-2-carboxamide] | 15 |
